Measured values published in the supplement of paper PMC10307832.

How the values were obtained:
Test in all cases: relative viability (nuclei count vs DMSO), 5 days (fraction); higher = more cells survive
GW-2580 + Pictilisib = compound: COC1=CC=C(C=C1)COC2=C(C=C(C=C2)CC3=CN=C(N=C3N)N)OC [GW-2580] + CS(=O)(=O)N1CCN(Cc2cc3nc(-c4cccc5[nH]ncc45)nc(N4CCOCC4)c3s2)CC1 [Pictilisib] (partner 1 µM)
How it was run: (§1)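 Lung cancer cell lines, seeded in 1536-well plates, were treated the following day by pin tool with a single drug or with five library-drug doses (not always all listed) in √10 steps on top of a fixed anchor-drug dose. Cells were fixed and nuclei stained in one step after 5 days, and nuclei were counted. Relative viability is the nuclei count for treated wells divided by that for vehicle wells, reported as medians of duplicate plates.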

Fedratinib + Alpelisib = compound: Cc1cnc(Nc2ccc(OCCN3CCCC3)cc2)nc1Nc1cccc(S(=O)(=O)NC(C)(C)C)c1 [Fedratinib] + Cc1nc(NC(=O)N2CCC[C@H]2C(N)=O)sc1-c1ccnc(C(C)(C)C(F)(F)F)c1 [Alpelisib] (partner 2 µM)
How it was run: as §1

GW-2580 + Navitoclax = compound: COC1=CC=C(C=C1)COC2=C(C=C(C=C2)CC3=CN=C(N=C3N)N)OC [GW-2580] + CC1(C)CCC(c2ccc(Cl)cc2)=C(CN2CCN(c3ccc(C(=O)NS(=O)(=O)c4ccc(N[C@H](CCN5CCOCC5)CSc5ccccc5)c(S(=O)(=O)C(F)(F)F)c4)cc3)CC2)C1 [Navitoclax] (partner 0.5 µM)
How it was run: as §1

GW-2580 + Phenformin = compound: COC1=CC=C(C=C1)COC2=C(C=C(C=C2)CC3=CN=C(N=C3N)N)OC [GW-2580] + N=C(N)NC(=N)NCCc1ccccc1 [Phenformin] (partner 250 µM)
How it was run: as §1

Fedratinib + Luminespib = compound: Cc1cnc(Nc2ccc(OCCN3CCCC3)cc2)nc1Nc1cccc(S(=O)(=O)NC(C)(C)C)c1 [Fedratinib] + CCNC(=O)c1noc(-c2cc(C(C)C)c(O)cc2O)c1-c1ccc(CN2CCOCC2)cc1 [Luminespib] (partner 0.01 µM)
How it was run: as §1

Cell Line | relative viability (GW-2580 + Pictilisib; first compound 0.08 µM) | relative viability (GW-2580 + Pictilisib; first compound 0.8 µM) | relative viability (GW-2580 + Pictilisib; first compound 2.53 µM) | relative viability (GW-2580 + Pictilisib; first compound 8 µM) | relative viability (Fedratinib + Alpelisib; first compound 0.1 µM) | relative viability (Fedratinib + Alpelisib; first compound 0.3162 µM) | relative viability (Fedratinib + Alpelisib; first compound 1 µM) | relative viability (GW-2580 + Navitoclax; first compound 0.08 µM) | relative viability (GW-2580 + Navitoclax; first compound 0.8 µM) | relative viability (GW-2580 + Navitoclax; first compound 2.53 µM) | relative viability (GW-2580 + Navitoclax; first compound 8 µM) | relative viability (GW-2580 + Phenformin; first compound 0.08 µM) | relative viability (GW-2580 + Phenformin; first compound 0.8 µM) | relative viability (GW-2580 + Phenformin; first compound 2.53 µM) | relative viability (GW-2580 + Phenformin; first compound 8 µM) | relative viability (Fedratinib + Luminespib; first compound 0.1 µM) | relative viability (Fedratinib + Luminespib; first compound 0.3162 µM) | relative viability (Fedratinib + Luminespib; first compound 1 µM)
HCC-366 | 0.148 | 0.199 | 0.141 | 0.137 | 0.273 | 0.458 | 0.356 | 1.27 | 1.17 | 1.13 | 1.11 | 0.682 | 0.573 | 0.595 | 0.546 | – | – | –
HCC-827 | 1.01 | 1.01 | 0.949 | 0.963 | 1.04 | 0.95 | 1.02 | 1.06 | 0.952 | 0.898 | 0.92 | 0.451 | 0.442 | 0.436 | 0.447 | 0.436 | 0.698 | 0.492
HOP-62 | 0.909 | 0.72 | 0.63 | 0.736 | 0.941 | 0.759 | 0.89 | 1.15 | 1.05 | 0.984 | 1.26 | 0.758 | 0.744 | 0.637 | 0.655 | 0.958 | 0.924 | 0.908
IA-LM | 0.315 | 0.324 | 0.398 | 0.405 | 0.563 | 0.758 | 0.658 | 0.895 | 0.88 | 0.723 | 0.782 | – | – | – | – | – | – | –
LC-2-ad | 0.577 | 0.502 | 0.447 | 0.413 | 0.932 | 0.879 | 0.772 | 0.544 | 0.52 | 0.357 | 0.498 | 0.595 | 0.674 | 0.634 | 0.682 | 1.01 | 1.06 | 0.917
LCLC-97TM1 | 0.197 | – | 0.159 | 0.181 | 0.201 | 0.288 | 0.189 | 0.443 | – | 0.369 | 0.321 | 0.443 | 0.469 | 0.438 | 0.454 | 0.85 | 0.758 | 0.7
LCLC-103H | 0.648 | 0.638 | 0.649 | 0.599 | 1.07 | 0.816 | 0.938 | – | – | – | – | 0.345 | 0.328 | 0.331 | 0.376 | 0.9 | 0.946 | 0.937
LK-2 | 0.476 | 0.569 | 0.428 | 0.552 | – | 0.936 | 0.936 | 0.983 | 1.09 | 0.616 | 1.03 | 0.37 | 0.544 | 0.318 | 0.391 | 0.173 | 0.169 | 0.186
LOU-NH91 | 0.527 | 0.549 | 0.502 | 0.535 | 0.615 | 0.785 | 0.676 | 0.683 | 0.731 | 0.618 | 0.752 | 0.692 | 0.757 | 0.611 | 0.66 | 0.323 | 0.4 | 0.33
LU99A | 0.274 | 0.322 | 0.251 | 0.294 | 0.55 | 0.518 | 0.387 | 0.887 | 0.97 | 0.681 | 0.729 | 0.773 | 0.823 | 0.647 | 0.808 | 0.271 | 0.302 | 0.216
LXF-289 | 0.82 | 0.849 | 0.653 | 0.672 | 1.06 | 0.997 | 1.05 | 1.02 | 0.963 | 0.948 | 0.821 | 0.514 | 0.521 | 0.489 | 0.506 | 0.741 | 0.665 | 0.747
NCI-H358 | 0.356 | 0.32 | 0.28 | 0.308 | 0.773 | 0.768 | 0.466 | – | – | – | – | 0.365 | 0.518 | 0.36 | 0.353 | 0.578 | 0.2 | 0.307
NCI-H522 | – | – | – | – | – | – | – | – | – | – | – | 0.659 | 0.638 | 0.959 | 0.754 | 1.14 | 1.21 | 1.14
NCI-H650 | 0.786 | 0.979 | 0.71 | 0.78 | – | 1.03 | 0.865 | – | – | – | – | 0.43 | 0.474 | 0.392 | 0.481 | 0.706 | 0.733 | 0.796
NCI-H661 | 0.343 | 0.377 | 0.321 | 0.361 | 0.835 | 0.452 | 0.629 | – | – | – | – | 0.269 | 0.282 | 0.282 | 0.271 | 0.925 | 0.969 | 0.846
NCI-H1299 | 0.776 | 0.736 | 0.773 | 0.748 | 1.08 | 1.07 | 1.05 | 1.09 | 1.06 | 1.06 | 0.97 | – | – | – | – | – | – | –
NCI-H1563 | 0.686 | 0.661 | 0.655 | 0.642 | 0.853 | 0.909 | 0.916 | – | – | – | – | 0.69 | 0.679 | 0.647 | 0.637 | 0.472 | 0.504 | 0.516
NCI-H1623 | – | – | – | – | – | – | – | – | – | – | – | 0.566 | 0.587 | 0.463 | 0.566 | 0.703 | 0.485 | 0.505
NCI-H1650 | 0.644 | 0.564 | 0.454 | 0.601 | – | – | – | 1.31 | 1.26 | 1.1 | 1.13 | 0.516 | 0.461 | 0.372 | 0.536 | – | 0.186 | 0.2
NCI-H1703 | 0.218 | 0.295 | 0.267 | 0.234 | 0.161 | 0.361 | 0.25 | 1.11 | 1.15 | 1.1 | 1.06 | – | – | – | – | – | – | –
NCI-H2342 | – | – | – | – | – | – | – | – | – | – | – | 0.57 | 0.725 | 0.509 | 0.567 | 0.695 | 0.874 | 0.837
SW 900 | – | – | – | – | – | – | – | – | – | – | – | 0.856 | 0.632 | 0.472 | 0.633 | 0.147 | 0.171 | 0.167
